For four compounds, TGI results are on record in PubChem BioAssay (NCI).

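These data come from cells grown in 96-well plates and exposed to compound for 48 hours at five concentrations. Definition used: TGI = concentration required for complete inhibition of growth.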

One assay deals with COLO 205 colon. As to the kind of experiment: NCI-60 cell line screen, 48 h.
For the compound `O=C(/C=C/c1ccsc1)c1ccsc1`, the TGI amounted to 52.8 µM.

For a further assay, the system named is A498 renal. As to the kind of experiment: NCI-60 cell line screen, 48 h.
In turn, `CC1(C)[C@@H]2CC[C@@]1(C)[C@@H]1O[C@@H](O[C@@H](CN)c3cc(Cl)c(OCc4ccccc4)c(OCc4ccccc4)c3)C[C@H]21` displayed a TGI of 0.344 µM.
On the same count and under the same terms, with `COc1cc(C2CC(C)(Nc3ccccc3)Oc3cc4c(cc32)OCO4)cc(OC)c1OC` (configuration not stated) the figure was above 100 µM; with `COC(=O)c1c2c(cc3c1CC1(C3)Cc3cc4c(c(C(=O)OC)c3C1)CCCC4)CCCC2`, above 100 µM.
Still for that read-out and setting: with `O=C(/C=C/c1ccsc1)c1ccsc1` the figure was above 100 µM.

The subject of the next assay is PC-3 prostate. As to the kind of experiment: NCI-60 cell line screen, 48 h.
Regarding `CC1(C)[C@@H]2CC[C@@]1(C)[C@@H]1O[C@@H](O[C@@H](CN)c3cc(Cl)c(OCc4ccccc4)c(OCc4ccccc4)c3)C[C@H]21`, the TGI is 0.292 µM.
On the same count and under the same terms, in the case of `COc1cc(C2CC(C)(Nc3ccccc3)Oc3cc4c(cc32)OCO4)cc(OC)c1OC` (configuration not stated) it was above 100 µM; in that of `COC(=O)c1c2c(cc3c1CC1(C3)Cc3cc4c(c(C(=O)OC)c3C1)CCCC4)CCCC2`, 39.5 µM.
Still for that read-out and setting: with `O=C(/C=C/c1ccsc1)c1ccsc1` the figure was 35.6 µM.

In a further assay the test system is UACC-257 melanoma. As to the kind of experiment: NCI-60 cell line screen, 48 h.
In the case of `CC1(C)[C@@H]2CC[C@@]1(C)[C@@H]1O[C@@H](O[C@@H](CN)c3cc(Cl)c(OCc4ccccc4)c(OCc4ccccc4)c3)C[C@H]21`, the TGI was 0.322 µM.
In turn, `COc1cc(C2CC(C)(Nc3ccccc3)Oc3cc4c(cc32)OCO4)cc(OC)c1OC` (configuration not stated) yielded a TGI above 85.2 µM.
On the same count and under the same terms, with `COC(=O)c1c2c(cc3c1CC1(C3)Cc3cc4c(c(C(=O)OC)c3C1)CCCC4)CCCC2` the figure was above 100 µM; with `O=C(/C=C/c1ccsc1)c1ccsc1`, 39.6 µM.

The subject of another assay is SF-268 CNS. As to the kind of experiment: NCI-60 cell line screen, 48 h.
Compound `COc1cc(C2CC(C)(Nc3ccccc3)Oc3cc4c(cc32)OCO4)cc(OC)c1OC` (configuration not stated) yielded a TGI above 100 µM.
The same measure, in the same setting: in the case of `O=C(/C=C/c1ccsc1)c1ccsc1` it was above 100 µM.

The next assay concerns LOX IMVI melanoma. As to the kind of experiment: NCI-60 cell line screen, 48 h.
`COc1cc(C2CC(C)(Nc3ccccc3)Oc3cc4c(cc32)OCO4)cc(OC)c1OC` (configuration not stated) yielded a TGI above 100 µM.
`COC(=O)c1c2c(cc3c1CC1(C3)Cc3cc4c(c(C(=O)OC)c3C1)CCCC4)CCCC2` returned a TGI above 100 µM.
The same measure, in the same setting: in the case of `O=C(/C=C/c1ccsc1)c1ccsc1` it was 35.2 µM.

Another assay relates to SK-OV-3 ovarian. As to the kind of experiment: NCI-60 cell line screen, 48 h.
`COc1cc(C2CC(C)(Nc3ccccc3)Oc3cc4c(cc32)OCO4)cc(OC)c1OC` (configuration not stated) displayed a TGI of 25.9 µM.
On the same count and under the same terms, with `COC(=O)c1c2c(cc3c1CC1(C3)Cc3cc4c(c(C(=O)OC)c3C1)CCCC4)CCCC2` the figure was above 100 µM.
For the compound `O=C(/C=C/c1ccsc1)c1ccsc1`, the TGI was above 100 µM.

The subject of a further assay is OVCAR-5 ovarian. As to the kind of experiment: NCI-60 cell line screen, 48 h.
As to `CC1(C)[C@@H]2CC[C@@]1(C)[C@@H]1O[C@@H](O[C@@H](CN)c3cc(Cl)c(OCc4ccccc4)c(OCc4ccccc4)c3)C[C@H]21`, the TGI was 0.302 µM.
The same measure, in the same setting: with `COc1cc(C2CC(C)(Nc3ccccc3)Oc3cc4c(cc32)OCO4)cc(OC)c1OC` (configuration not stated) the figure was above 34.3 µM; with `COC(=O)c1c2c(cc3c1CC1(C3)Cc3cc4c(c(C(=O)OC)c3C1)CCCC4)CCCC2`, above 100 µM.

The subject of a further assay is MCF7 breast. As to the kind of experiment: NCI-60 cell line screen, 48 h.
In turn, `CC1(C)[C@@H]2CC[C@@]1(C)[C@@H]1O[C@@H](O[C@@H](CN)c3cc(Cl)c(OCc4ccccc4)c(OCc4ccccc4)c3)C[C@H]21` displayed a TGI of 0.262 µM.
The same measure, in the same setting: in the case of `COc1cc(C2CC(C)(Nc3ccccc3)Oc3cc4c(cc32)OCO4)cc(OC)c1OC` (configuration not stated) it was above 51.5 µM; in that of `COC(=O)c1c2c(cc3c1CC1(C3)Cc3cc4c(c(C(=O)OC)c3C1)CCCC4)CCCC2`, above 100 µM.
Same read-out and setting: with `O=C(/C=C/c1ccsc1)c1ccsc1` the figure was 32.4 µM.

A further assay has as its system IGROV1 ovarian. As to the kind of experiment: NCI-60 cell line screen, 48 h.
Consider `COc1cc(C2CC(C)(Nc3ccccc3)Oc3cc4c(cc32)OCO4)cc(OC)c1OC` (configuration not stated), for which the TGI is above 59.8 µM.
On the same count and under the same terms, in the case of `COC(=O)c1c2c(cc3c1CC1(C3)Cc3cc4c(c(C(=O)OC)c3C1)CCCC4)CCCC2` it was above 100 µM.
On the same count and under the same terms, in the case of `O=C(/C=C/c1ccsc1)c1ccsc1` it was 94.6 µM.

The test system of another assay is SN12C renal. As to the kind of experiment: NCI-60 cell line screen, 48 h.
As to `COc1cc(C2CC(C)(Nc3ccccc3)Oc3cc4c(cc32)OCO4)cc(OC)c1OC` (configuration not stated), the TGI was above 100 µM.
On the same count and under the same terms, in the case of `COC(=O)c1c2c(cc3c1CC1(C3)Cc3cc4c(c(C(=O)OC)c3C1)CCCC4)CCCC2` it was above 100 µM; in that of `O=C(/C=C/c1ccsc1)c1ccsc1`, 40.4 µM.

A further assay relates to HS 578T breast. As to the kind of experiment: NCI-60 cell line screen, 48 h.
As to `COc1cc(C2CC(C)(Nc3ccccc3)Oc3cc4c(cc32)OCO4)cc(OC)c1OC` (configuration not stated), the TGI was above 100 µM.
The same measure, in the same setting: in the case of `COC(=O)c1c2c(cc3c1CC1(C3)Cc3cc4c(c(C(=O)OC)c3C1)CCCC4)CCCC2` it was above 100 µM; in that of `O=C(/C=C/c1ccsc1)c1ccsc1`, above 100 µM.

The subject of the next assay is OVCAR-4 ovarian. As to the kind of experiment: NCI-60 cell line screen, 48 h.
For `CC1(C)[C@@H]2CC[C@@]1(C)[C@@H]1O[C@@H](O[C@@H](CN)c3cc(Cl)c(OCc4ccccc4)c(OCc4ccccc4)c3)C[C@H]21`, the TGI is 0.298 µM.
Same read-out and setting: with `COc1cc(C2CC(C)(Nc3ccccc3)Oc3cc4c(cc32)OCO4)cc(OC)c1OC` (configuration not stated) the figure was above 78.5 µM.
Still for that read-out and setting: in the case of `COC(=O)c1c2c(cc3c1CC1(C3)Cc3cc4c(c(C(=O)OC)c3C1)CCCC4)CCCC2` it was above 100 µM; in that of `O=C(/C=C/c1ccsc1)c1ccsc1`, above 100 µM.

In another assay the test system is OVCAR-8 ovarian. As to the kind of experiment: NCI-60 cell line screen, 48 h.
As for `COc1cc(C2CC(C)(Nc3ccccc3)Oc3cc4c(cc32)OCO4)cc(OC)c1OC` (configuration not stated), the TGI is above 100 µM.
The same measure, in the same setting: in the case of `COC(=O)c1c2c(cc3c1CC1(C3)Cc3cc4c(c(C(=O)OC)c3C1)CCCC4)CCCC2` it was above 100 µM; in that of `O=C(/C=C/c1ccsc1)c1ccsc1`, 85.6 µM.

In the next assay the test system is NCI-H226 lung. As to the kind of experiment: NCI-60 cell line screen, 48 h.
As to `COc1cc(C2CC(C)(Nc3ccccc3)Oc3cc4c(cc32)OCO4)cc(OC)c1OC` (configuration not stated), the TGI was 7.12 µM.
The compound `COC(=O)c1c2c(cc3c1CC1(C3)Cc3cc4c(c(C(=O)OC)c3C1)CCCC4)CCCC2` gave a TGI above 100 µM.
Still for that read-out and setting: with `O=C(/C=C/c1ccsc1)c1ccsc1` the figure was 39 µM.
